In patent publication US11752139B2, “Therapeutic combinations of orally administered irinotecan and a p-gp inhibitor for the treatment of cancer” (priority 2018, dated 2023):
“And” between values parts separate entries of the source, which are not always exact repeats. Equal entries are not always repeated. Where two headings read alike, the source gives them in different places.

How the values were obtained:
[1] = for AUC24 h / Cmax / Tmax: N = 3
Description: A phase 1 dose escalation study was performed to determine the MTD and DLT of orally administered irinotecan in combination with 15 mg (on day 1 of a 21-day cycle) of HM30181A. The study was performed on cohorts of 3-6 subjects with advanced malignancies. Subjects had Hb (hemoglobin count) 9 gm/dL, ANC (absolute neutrophil count) 1.5×10^9/L, and platelets 100×10^9/L, as well as adequate hepatic and renal function, and ECOG (Eastern Cooperative Oncology Group Performance Status) 0-1, and were not homozygous for UGT1A1*28.

[2] = Simple Emax model of exposure (AUCinf, Cmax) versus dose
[3] = Study 2: pharmacokinetics of oral irinotecan and M1, 5-20 mg/m^2 per day for 10 days during a 21 day cycle; details: for AUC24 / Cmax: mean
[4] = Study 1: pharmacokinetics of oral irinotecan and M1, 5-30 mg/m^2 per day for five days during a 21 day cycle; details: for AUC24 / Cmax: mean
[5] = IV dose of 340 mg/m^2; reference line of FIG. 5A; cited from earlier work
[6] = Tablet, dose 120 (mg), Mean (CV %), N 3, plasma
[7] = Tablet, dose 160 (mg), Mean (CV %), N 3, plasma
[8] = Tablet, dose 200 (mg), Mean (CV %), N 3, plasma
[9] = Tablet, dose 240 (mg), Mean (CV %), N 3, plasma
[10] = Tablet, dose 280 (mg), Mean (CV %), N 3, plasma
[11] = Tablet, dose 320 (mg), Mean (CV %), N 3, plasma
[12] = single oral dose 240 mg/m^2, individual subjects 1-3, plasma
[13] = single oral dose 280 mg/m^2, individual subjects 4-6, plasma
[14] = single oral dose 320 mg/m^2, individual subjects 7-9, plasma
[15] = dose 240 mg/m^2 oral irinotecan + 15 mg HM30181A
[16] = dose 280 mg/m^2 oral irinotecan + 15 mg HM30181A
[17] = dose 320 mg/m^2 oral irinotecan + 15 mg HM30181A

CCc1c2c(nc3ccc(O)cc13)-c1cc3c(c(=O)n1C2)COC(=O)[C@]3(O)CC [Compound M1]
AUC0-inf (Tablet, dose 120 (mg), Mean (CV %), N 2, plasma): 274 (18.3) ng*hr/mL
AUC0-24 [6]: 168 (32.9) ng*hr/mL
Cmax [6]: 23.1 (58.4) ng/mL
Tlast [6]: 56.0 h
Tmax* (Tablet, dose 120 (mg), N 3, plasma): 3.00 h
AUC0-24 [7]: 156 (22.6) ng*hr/mL
AUC0-inf [7]: 235 (13.4) ng*hr/mL
Cmax [7]: 25.0 (58.1) ng/mL
Tlast [7]: 48.0 (21.7) hr
Tmax* (Tablet, dose 160 (mg), N 3, plasma): 3.00 h
AUC0-24 [8]: 185 (66.3) ng*hr/mL
AUC0-inf [8]: 468 (90.0) ng*hr/mL
Cmax [8]: 23.0 (102) ng/mL
Tlast [8]: 88.0 (83.3) hr
Tmax* (Tablet, dose 200 (mg), N 3, plasma): 3.00 h
AUC0-24 [9]: 264 (66.4) ng*hr/mL
Cmax [9]: 28.3 (67.3) ng/mL
Tlast [9]: 96.0 (66.1) hr
AUC0-inf (Tablet, dose 240 (mg), N 1, plasma): 224 ng·h/mL
Tmax* (Tablet, dose 240 (mg), N 3, plasma): 3.00 h
AUC0-24 [10]: 293 (60.0) ng*hr/mL
AUC0-inf [10]: 468 (67.3) ng*hr/mL
Cmax [10]: 37.6 (42.4) ng/mL
Tlast [10]: 72.0 (0) hr
Tmax* (Tablet, dose 280 (mg), N 3, plasma): 1.5 h
AUC0-24 [11]: 300 (42.3) ng*hr/mL
Cmax [11]: 38.5 (58.7) ng/mL
Tlast [11]: 72.0 (0) hr
AUC0-inf (Tablet, dose 320 (mg), N 1, plasma): 349 ng·h/mL
Tmax* (Tablet, dose 320 (mg), N 3, plasma): 2.00 h
Observed Mean (Cmax) (dose 200 mg/m^2): 0.023 µg/mL
Observed Mean AUCinf (dose 200 mg/m^2): 0.468 µg·h/mL
Observed Mean (Cmax) (dose 240 mg/m^2): 0.0283 µg/mL
Observed Mean AUCinf (dose 240 mg/m^2): 0.224 µg·h/mL
Observed Mean (Cmax) (dose 280 mg/m^2): 0.0376 µg/mL
Observed Mean AUCinf (dose 280 mg/m^2): 0.468 µg·h/mL
Observed Mean (Cmax) (dose 320 mg/m^2): 0.0387 µg/mL
Observed Mean AUCinf (dose 320 mg/m^2): 0.349 µg·h/mL
subjects with M1 exposures (AUC24) comparable between oral irinotecan and IV irinotecan (dose level of 200 mg/m^2 and above): 4 of 9
M1 Cmax compared with IV irinotecan (oral solution administration): within the range of 125 mg/m^2 dosed IV irinotecan
early enterohepatic recycling (EHR) in plasma concentration profile, time (plasma): 5.5 h
possible enterohepatic recycling (EHR) in plasma concentration profile, time (plasma): 50 h
AUC24 [12]: 0.133 µg·h/mL and 0.463 µg·h/mL and 0.195 µg·h/mL
AUCinf [12]: 0.224 µg·h/mL
AUClast [12]: 0.185 µg·h/mL and 0.636 µg·h/mL and 0.376 µg·h/mL
Cmax [12]: 17.1 ng/mL and 50.3 ng/mL and 17.5 ng/mL
Tlast [12]: 48 h and 168 h and 72 h
Tmax [12]: 3 h
AUC24 [13]: 0.497 µg·h/mL and 0.19 µg·h/mL and 0.194 µg·h/mL
AUCinf [13]: 0.831 µg·h/mL and 0.273 µg·h/mL and 0.3 µg·h/mL
AUClast [13]: 0.783 µg·h/mL and 0.256 µg·h/mL and 0.282 µg·h/mL
Cmax [13]: 55.4 ng/mL and 33.0 ng/mL and 24.5 ng/mL
Tlast [13]: 72 h
Tmax [13]: 1 h and 1.5 h and 3 h
AUC24 [14]: 0.212 µg·h/mL and 0.445 µg·h/mL and 0.242 µg·h/mL
AUCinf [14]: 0.349 µg·h/mL
AUClast [14]: 0.322 µg·h/mL and 0.713 µg·h/mL and 0.41 µg·h/mL
Cmax [14]: 28.1 ng/mL and 64.8 ng/mL and 23.2 ng/mL
Tlast [14]: 72 h
Tmax [14]: 1.5 h and 2 h and 3 h
M1 Cmax compared with IV irinotecan (tablet formulation, FIG. 5B): in a range of that observed with IV irinotecan dosage of 340 mg/m^2
AUC24 h [1, 15]: 0.264 µg·h/mL
Cmax [1, 15]: 0.0283 µg/mL
Tmax [1, 15]: 3.0 h
AUC24 h [1, 16]: 0.293 µg·h/mL
Cmax [1, 16]: 0.0376 µg/mL
AUC24 h [1, 17]: 0.3 µg·h/mL
Cmax [1, 17]: 0.0385 µg/mL
Tmax [1, 17]: 2.0 h
concentrations of SN-38 reached ([1]; oral administration of HM30181A in combination with irinotecan tablets): pharmacologically active concentrations
Predicted AUCinf ([2]; dose 200 mg/m^2): 423
Predicted Cmax ([2]; dose 200 mg/m^2): 29.2
Predicted AUCinf ([2]; dose 240 mg/m^2): 464
Predicted Cmax ([2]; dose 240 mg/m^2): 31.9
Predicted AUCinf ([2]; dose 280 mg/m^2): 499
Predicted Cmax ([2]; dose 280 mg/m^2): 34.1
Predicted AUCinf ([2]; dose 320 mg/m^2): 528
Predicted Cmax ([2]; dose 320 mg/m^2): 38.8
pharmacokinetics versus dose ([3]; 5-20 mg/m^2 per day for 10 days during a 21 day cycle): increased proportionally with dose
AUC24 ([3]; Day 1, dose group 5 mg/m^2): 0.0414 µg·h/mL
Cmax ([3]; Day 1, dose group 5 mg/m^2): 0.00708 µg/mL
AUC24 ([3]; Day 1, dose group 10 mg/m^2): 0.04334 µg·h/mL
Cmax ([3]; Day 1, dose group 10 mg/m^2): 0.00504 µg/mL
AUC24 ([3]; Day 1, dose group 15 mg/m^2): 0.08561 µg·h/mL
Cmax ([3]; Day 1, dose group 15 mg/m^2): 0.01019 µg/mL
AUC24 ([3]; Day 1, dose group 20 mg/m^2): 0.05444 µg·h/mL
Cmax ([3]; Day 1, dose group 20 mg/m^2): 0.00415 µg/mL
AUC24 ([3]; Day 12, dose group 5 mg/m^2): 0.04253 µg·h/mL
Cmax ([3]; Day 12, dose group 5 mg/m^2): 0.0061 µg/mL
AUC24 ([3]; Day 12, dose group 10 mg/m^2): 0.03817 µg·h/mL
Cmax ([3]; Day 12, dose group 10 mg/m^2): 0.00404 µg/mL
AUC24 ([3]; Day 12, dose group 15 mg/m^2): 0.14414 µg·h/mL
Cmax ([3]; Day 12, dose group 15 mg/m^2): 0.018 µg/mL
AUC24 ([3]; Day 12, dose group 20 mg/m^2): 0.07197 µg·h/mL
Cmax ([3]; Day 12, dose group 20 mg/m^2): 0.00763 µg/mL
pharmacokinetics versus dose ([4]; 5-30 mg/m^2 per day for five days during a 21 day cycle): increased proportionally with dose
AUC24 ([4]; Day 1, dose group 5 mg/m^2): 0.04983 µg·h/mL
Cmax ([4]; Day 1, dose group 5 mg/m^2): 0.00607 µg/mL
AUC24 ([4]; Day 1, dose group 10 mg/m^2): 0.04604 µg·h/mL
Cmax ([4]; Day 1, dose group 10 mg/m^2): 0.00784 µg/mL
AUC24 ([4]; Day 1, dose group 15 mg/m^2): 0.05029 µg·h/mL
Cmax ([4]; Day 1, dose group 15 mg/m^2): 0.00533 µg/mL
AUC24 ([4]; Day 1, dose group 20 mg/m^2): 0.06356 µg·h/mL
Cmax ([4]; Day 1, dose group 20 mg/m^2): 0.00892 µg/mL
AUC24 ([4]; Day 1, dose group 25 mg/m^2): 0.14397 µg·h/mL
Cmax ([4]; Day 1, dose group 25 mg/m^2): 0.0171 µg/mL
AUC24 ([4]; Day 1, dose group 30 mg/m^2): 0.08364 µg·h/mL
Cmax ([4]; Day 1, dose group 30 mg/m^2): 0.00731 µg/mL
AUC24 ([4]; Day 5, dose group 5 mg/m^2): 0.06861 µg·h/mL
Cmax ([4]; Day 5, dose group 5 mg/m^2): 0.00584 µg/mL
AUC24 ([4]; Day 5, dose group 10 mg/m^2): 0.0514 µg·h/mL
Cmax ([4]; Day 5, dose group 10 mg/m^2): 0.00615 µg/mL
AUC24 ([4]; Day 5, dose group 15 mg/m^2): 0.11829 µg·h/mL
Cmax ([4]; Day 5, dose group 15 mg/m^2): 0.01114 µg/mL
AUC24 ([4]; Day 5, dose group 20 mg/m^2): 0.11938 µg·h/mL
Cmax ([4]; Day 5, dose group 20 mg/m^2): 0.01173 µg/mL
AUC24 ([4]; Day 5, dose group 25 mg/m^2): 0.17858 µg·h/mL
Cmax ([4]; Day 5, dose group 25 mg/m^2): 0.01493 µg/mL
AUC24 ([4]; Day 5, dose group 30 mg/m^2): 0.30827 µg·h/mL
Cmax ([4]; Day 5, dose group 30 mg/m^2): 0.01344 µg/mL

CCc1c2c(nc3ccc(OC(=O)N4CCC(N5CCCCC5)CC4)cc13)-c1cc3c(c(=O)n1C2)COC(=O)[C@]3(O)CC [IV dosed irinotecan]
Cmax [5]: 3.392 µg/mL
